Active and inactive are the calls of the source. Where only a bound is given, the exact number is not on record here.

A short description of test [1]: intracellular Trypanosoma cruzi inhibitors in host cells – cell-based, plate reader, cherry-pick samples, set 3, dose response (AID 651818).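 Further: compounds incubated with infected cells for about four days.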 Format: functional.
For test [2], the target named is T1, Carboxy-terminal domain RNA polymerase II polypeptide A small phosphatase 1 (Homo sapiens, UniProt Q9GZU7).
T1 sequence (Q9GZU7 whole entry): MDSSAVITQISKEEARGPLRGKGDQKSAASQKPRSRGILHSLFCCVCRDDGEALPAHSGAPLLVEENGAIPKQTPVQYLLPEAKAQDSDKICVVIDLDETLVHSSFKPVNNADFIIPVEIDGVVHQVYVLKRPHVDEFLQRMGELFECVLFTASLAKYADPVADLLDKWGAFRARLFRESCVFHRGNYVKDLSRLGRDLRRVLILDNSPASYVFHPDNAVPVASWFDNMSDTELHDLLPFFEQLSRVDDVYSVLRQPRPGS
The experiment in a line: inhibitors of CTDSP1, concentration-response testing, biochemical assay, absorbance-based, actives from ultra-high-throughput screening (AID 540297). Format: functional.

The target of test [3] is DNA dC->dU-editing enzyme APOBEC-3A (Homo sapiens, UniProt P31941). The experiment in a line: Dose Response confirmation of small molecule APOBEC3A DNA Deaminase Inhibitors via a fluorescence-based single-stranded DNA deaminase assay. [Related pubchem assays (depositor defined):AID493011, AID493024]. Format: functional.
Chain of DNA dC->dU-editing enzyme APOBEC-3A (P31941 whole entry): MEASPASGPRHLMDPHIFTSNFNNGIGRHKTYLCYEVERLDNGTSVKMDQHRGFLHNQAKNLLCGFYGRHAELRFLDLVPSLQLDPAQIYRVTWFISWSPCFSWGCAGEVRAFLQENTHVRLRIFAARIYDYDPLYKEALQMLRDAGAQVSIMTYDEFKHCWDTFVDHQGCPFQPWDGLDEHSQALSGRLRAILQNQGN
In test [4] the target is DNA dC->dU-editing enzyme APOBEC-3G (Homo sapiens, UniProt Q9HC16). In kind it is functional.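 Further: Dose-response counterscreen measuring inhibition of APOBEC3G DNA deaminase activity, run while confirming APOBEC3A inhibitors.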
Chain of DNA dC->dU-editing enzyme APOBEC-3G (Q9HC16 whole entry): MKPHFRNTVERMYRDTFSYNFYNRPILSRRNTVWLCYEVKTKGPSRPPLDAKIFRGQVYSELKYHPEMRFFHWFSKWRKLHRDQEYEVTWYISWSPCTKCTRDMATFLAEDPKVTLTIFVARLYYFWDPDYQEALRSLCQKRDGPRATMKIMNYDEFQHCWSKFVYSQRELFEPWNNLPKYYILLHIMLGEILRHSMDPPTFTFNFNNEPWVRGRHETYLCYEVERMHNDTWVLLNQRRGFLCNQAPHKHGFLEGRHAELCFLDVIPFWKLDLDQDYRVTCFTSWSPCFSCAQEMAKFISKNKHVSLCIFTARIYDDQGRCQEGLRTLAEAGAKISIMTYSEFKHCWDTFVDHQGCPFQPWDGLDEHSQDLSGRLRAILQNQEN
In test [5] the target is T2, Exodeoxyribonuclease V (Escherichia coli (strain K12), UniProt P04993+P07648+P08394).
T2 sequence (P04993 whole entry): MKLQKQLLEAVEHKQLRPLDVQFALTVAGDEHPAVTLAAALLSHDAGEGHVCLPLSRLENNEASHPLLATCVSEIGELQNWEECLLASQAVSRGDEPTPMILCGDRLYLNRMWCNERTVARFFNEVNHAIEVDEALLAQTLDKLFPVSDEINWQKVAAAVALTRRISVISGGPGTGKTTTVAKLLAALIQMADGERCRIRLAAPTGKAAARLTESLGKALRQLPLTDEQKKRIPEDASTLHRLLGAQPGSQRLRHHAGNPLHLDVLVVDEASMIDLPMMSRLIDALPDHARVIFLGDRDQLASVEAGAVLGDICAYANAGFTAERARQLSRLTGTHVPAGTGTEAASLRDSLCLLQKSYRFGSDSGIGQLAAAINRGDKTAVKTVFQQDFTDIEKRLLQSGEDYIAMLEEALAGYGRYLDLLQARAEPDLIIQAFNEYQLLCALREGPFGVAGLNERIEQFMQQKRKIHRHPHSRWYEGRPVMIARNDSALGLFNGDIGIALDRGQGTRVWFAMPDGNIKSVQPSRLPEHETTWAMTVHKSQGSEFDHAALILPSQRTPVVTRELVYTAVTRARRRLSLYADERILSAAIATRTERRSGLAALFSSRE
T2 sequence (P07648 whole entry): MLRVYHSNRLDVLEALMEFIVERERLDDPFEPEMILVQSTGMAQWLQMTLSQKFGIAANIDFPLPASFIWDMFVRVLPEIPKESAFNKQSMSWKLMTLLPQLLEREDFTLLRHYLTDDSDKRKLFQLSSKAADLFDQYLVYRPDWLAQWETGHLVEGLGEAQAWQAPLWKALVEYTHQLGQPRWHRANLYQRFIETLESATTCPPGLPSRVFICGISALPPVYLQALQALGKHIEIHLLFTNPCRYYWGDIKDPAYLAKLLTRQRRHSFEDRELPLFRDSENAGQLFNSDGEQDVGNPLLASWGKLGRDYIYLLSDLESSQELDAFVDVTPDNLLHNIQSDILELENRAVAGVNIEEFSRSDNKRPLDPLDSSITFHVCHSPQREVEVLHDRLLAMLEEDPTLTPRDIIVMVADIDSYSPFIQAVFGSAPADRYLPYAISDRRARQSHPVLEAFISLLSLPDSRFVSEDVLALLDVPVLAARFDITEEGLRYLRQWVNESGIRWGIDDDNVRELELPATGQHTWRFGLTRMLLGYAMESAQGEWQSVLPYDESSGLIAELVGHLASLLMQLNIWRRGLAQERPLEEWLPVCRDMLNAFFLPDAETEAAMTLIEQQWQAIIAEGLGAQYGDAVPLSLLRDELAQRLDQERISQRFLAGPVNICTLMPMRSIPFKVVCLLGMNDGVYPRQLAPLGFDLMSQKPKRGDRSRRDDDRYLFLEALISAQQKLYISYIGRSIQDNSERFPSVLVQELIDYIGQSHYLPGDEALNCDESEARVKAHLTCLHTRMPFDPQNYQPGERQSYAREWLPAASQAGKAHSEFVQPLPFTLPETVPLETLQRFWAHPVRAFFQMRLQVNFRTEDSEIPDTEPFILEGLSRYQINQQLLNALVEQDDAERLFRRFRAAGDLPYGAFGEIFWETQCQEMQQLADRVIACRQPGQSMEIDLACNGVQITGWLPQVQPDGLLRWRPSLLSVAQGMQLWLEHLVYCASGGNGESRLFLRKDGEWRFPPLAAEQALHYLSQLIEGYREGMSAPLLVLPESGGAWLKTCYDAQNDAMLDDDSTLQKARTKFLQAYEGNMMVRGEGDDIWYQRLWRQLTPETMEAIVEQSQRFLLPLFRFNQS
T2 sequence (P08394 whole entry): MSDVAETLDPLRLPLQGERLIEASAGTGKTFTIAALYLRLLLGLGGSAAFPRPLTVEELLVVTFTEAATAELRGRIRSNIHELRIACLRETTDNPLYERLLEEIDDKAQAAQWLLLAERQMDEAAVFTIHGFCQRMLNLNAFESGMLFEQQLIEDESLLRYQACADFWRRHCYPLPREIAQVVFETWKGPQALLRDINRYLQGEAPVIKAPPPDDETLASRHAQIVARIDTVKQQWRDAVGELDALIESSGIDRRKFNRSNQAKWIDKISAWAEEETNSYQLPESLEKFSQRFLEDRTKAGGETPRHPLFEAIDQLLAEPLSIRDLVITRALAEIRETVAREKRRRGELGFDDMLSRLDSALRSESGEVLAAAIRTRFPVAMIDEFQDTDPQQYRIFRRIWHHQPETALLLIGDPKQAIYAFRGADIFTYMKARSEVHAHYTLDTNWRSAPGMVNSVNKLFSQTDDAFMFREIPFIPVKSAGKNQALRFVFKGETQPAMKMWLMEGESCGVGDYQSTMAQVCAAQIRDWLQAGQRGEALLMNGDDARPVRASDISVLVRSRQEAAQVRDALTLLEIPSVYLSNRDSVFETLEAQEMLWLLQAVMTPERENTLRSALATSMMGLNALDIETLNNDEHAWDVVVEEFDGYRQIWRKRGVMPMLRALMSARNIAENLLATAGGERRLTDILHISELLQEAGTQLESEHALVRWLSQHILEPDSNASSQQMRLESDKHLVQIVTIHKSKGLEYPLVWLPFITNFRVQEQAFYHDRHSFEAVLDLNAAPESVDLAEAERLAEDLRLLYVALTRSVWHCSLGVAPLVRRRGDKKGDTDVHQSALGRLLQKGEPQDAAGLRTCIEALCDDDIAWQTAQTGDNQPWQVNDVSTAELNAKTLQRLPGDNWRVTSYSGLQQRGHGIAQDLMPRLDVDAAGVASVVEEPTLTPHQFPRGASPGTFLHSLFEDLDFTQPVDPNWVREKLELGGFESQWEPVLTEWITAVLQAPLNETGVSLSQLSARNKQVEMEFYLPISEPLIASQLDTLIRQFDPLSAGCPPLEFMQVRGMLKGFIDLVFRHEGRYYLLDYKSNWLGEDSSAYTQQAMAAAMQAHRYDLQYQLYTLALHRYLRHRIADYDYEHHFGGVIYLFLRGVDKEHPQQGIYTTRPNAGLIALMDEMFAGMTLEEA
The experiment in a line: E. coli RecBCD inhibitors, dose response, counter-screen for AddAB inhibitor project, absorbance, V66 E. coli, mutant T4 phage (AID 492957). Format: functional, cell-based, Escherichia coli str. K-12 substr. MG1655.

Test [6] is described as follows: Counterscreen for AddAB inhibitors: absorbance-based bacterial cell-based high throughput dose response assay for inhibitors of bacterial viability. [Related pubchem assays (depositor defined):AID435030, AID449728, AID449731, AID488942, AID488955, AID488956]. In kind it is functional.
Test [7] deals with T3, Short transient receptor potential channel 4 (Mus musculus, UniProt Q9QUQ5).
T3 sequence (Q9QUQ5 whole entry): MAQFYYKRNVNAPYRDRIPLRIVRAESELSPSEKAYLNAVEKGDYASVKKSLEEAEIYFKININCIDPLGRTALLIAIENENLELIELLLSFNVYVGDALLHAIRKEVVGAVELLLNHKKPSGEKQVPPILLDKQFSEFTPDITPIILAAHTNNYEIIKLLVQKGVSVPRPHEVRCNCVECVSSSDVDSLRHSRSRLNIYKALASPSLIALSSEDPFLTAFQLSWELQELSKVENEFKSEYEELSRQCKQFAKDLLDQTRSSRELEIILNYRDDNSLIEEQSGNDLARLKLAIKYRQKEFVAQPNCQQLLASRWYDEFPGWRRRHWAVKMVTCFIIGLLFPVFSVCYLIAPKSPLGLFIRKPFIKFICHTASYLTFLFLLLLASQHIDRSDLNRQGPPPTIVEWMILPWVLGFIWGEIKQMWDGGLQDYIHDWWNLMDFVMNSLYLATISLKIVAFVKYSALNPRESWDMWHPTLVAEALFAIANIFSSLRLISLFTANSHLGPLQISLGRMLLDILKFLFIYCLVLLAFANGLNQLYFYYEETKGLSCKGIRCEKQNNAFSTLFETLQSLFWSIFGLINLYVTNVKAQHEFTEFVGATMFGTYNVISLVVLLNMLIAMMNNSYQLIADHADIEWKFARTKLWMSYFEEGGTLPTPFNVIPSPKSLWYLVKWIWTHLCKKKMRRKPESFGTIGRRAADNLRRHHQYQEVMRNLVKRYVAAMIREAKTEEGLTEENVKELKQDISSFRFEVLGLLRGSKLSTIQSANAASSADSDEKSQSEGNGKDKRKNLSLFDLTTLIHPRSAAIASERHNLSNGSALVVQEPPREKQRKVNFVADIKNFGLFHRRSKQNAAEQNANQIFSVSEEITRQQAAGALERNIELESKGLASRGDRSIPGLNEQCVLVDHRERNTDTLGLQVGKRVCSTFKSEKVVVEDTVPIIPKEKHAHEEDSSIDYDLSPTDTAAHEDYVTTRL
The experiment in a line: mouse TRPC4 channel inhibitors, dose response, cell-based, HEK293 TRPC4/mu-opioid, Fluo-4 calcium (AID 434942).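 Further: potency of inhibitors blocking the TRPC4 calcium response.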 Format: functional.

Test [8] deals with T3, Short transient receptor potential channel 4. As to the kind of experiment: mouse TRPC4 channel activators, dose response, cell-based, HEK293 TRPC4/mu-opioid, Fluo-4 calcium (AID 434937). In kind it is functional.
For test [9], the target named is Heat shock protein HSP 90-alpha (Homo sapiens, UniProt P07900). In kind it is functional, organism-based.
Test [10] is described as follows: microbe, parasite or virus in culture. In kind it is functional. To be noted: Mycobacterium tuberculosis.

On to `C[C@@H]1CN([C@H](C)CO)C(=O)Cc2cc(NC(=O)Nc3cccc4ccccc34)ccc2O[C@@H]1CN(C)Cc1ccc(Oc2ccccc2)cc1`, for which, in test [1], the AC50 was 2.15 µM (active).

As for `Cc1ccc(C)c(NC(=O)CSc2sc3c(O)cc(=O)[nH]c3c2C#N)c1`, the IC50 in test [2] was 6.09 µM (active). In the case of `C[C@H]1CN([C@@H](C)CO)C(=O)c2cccc(NC(=O)c3nc4ccccc4s3)c2O[C@H]1CN(C)Cc1ccc(C(=O)Nc2ccccc2N)cc1`, the half-maximal activity concentration (AC50) in test [1] is 2.97 µM (active). Regarding `CCCCn1nc(NC(=O)COC)c2cc3ccc(C)cc3nc21`, the IC50 in test [3] is 3.49 µM (active); in [4], 5 µM (active). Consider `COc1ccc(NC(=O)CSc2nnc(-c3ccc(F)cc3)o2)cn1`, for which the IC50 in test [5] and in test [6] was > 119 µM (inactive) each time. Consider `CN(C)C(CNC(=O)C1CCN(S(=O)(=O)c2cccc(C(F)(F)F)c2)CC1)c1ccccc1` (centres undefined), for which the results for the half-maximal effective concentration (EC50) in test [7] and in test [8] were 0.421 µM (active) and 0.376 µM (active), respectively.

On to `Cc1cc(NS(=O)(=O)c2ccc(N)cc2)no1` [SULFAMETHOXAZOLE], for which the IC50 was > 119 µM (inactive) in [5] and 29.2 µM (inactive) in [6]. Turning to `COC(=O)Cn1c(=O)c2c(n(Cc3ccccc3)c1=O)=N/C(=C/c1ccc(Br)cc1)C=2O`, the half-inhibitory concentration (IC50) in test [2] was 5.15 µM (active). Regarding `O=C(O)c1cn(-c2ccc(N3CCCC3)c(F)c2)c2c(F)c(F)c(F)cc2c1=O`, the IC50 in [5] was > 119 µM (inactive); in [6], 64.9 µM (inactive). Besides, the AC50 in test [9] was 4.37 µM (active).

`COc1cc(OC)c(CN2CCC(Cc3ccccc3)CC2)cc1Br`: in [8], the EC50 is 2.66 µM (active). `Cc1ccc(C)c(OCCC(=O)OCC(=O)N2c3ccccc3NC(=O)C2(C)C)c1`: the IC50 was 11 µM (active) in test [3] and 10.4 µM (active) in [4]. For the molecule `O=C(COc1cccc([N+](=O)[O-])c1)N/N=C/c1ccco1`, in test [2], the half-inhibitory concentration (IC50) is 13.9 µM (active). Consider `Cc1cc(Cl)ccc1N=C(S)NCc1ccccc1Cl`, for which the IC50 in [5] and in [6] was > 119 µM (inactive) throughout. In the case of `CCC(C)NC(=O)c1cn(CC)c2cc(N3CCN(C(=O)c4ccco4)CC3)c(F)cc2c1=O` (centres undefined), in test [10], the CC50 is > 40 µM (active). The IC50 in test [5] was 89.9 µM (inactive); in test [6] it was 22 µM (inactive). As to `CCOc1ccccc1OCC(=O)Nc1cc(S(=O)(=O)N2CCCCC2)ccc1N1CCN(CC)CC1`, the concentration for half-maximal inhibition (IC50) in test [3] is 5.85 µM (active); in [4], 6.44 µM (active). Besides, the 50% effective concentration (EC50) in test [8] was 4.22 µM (active). Consider `O=C(Nc1nc2c(s1)CCCC2)C1CCCN1C(=O)c1cccs1` (centres undefined), for which the IC50 was 10 µM (active) in test [3] and 15.8 µM (active) in [4].

These data come from ChEMBL document CHEMBL1201862, “PubChem BioAssay data set” (2004).
